Assay results as given in PMC6499206, “Quantification of Volatile Metabolites Derived From Garlic (Allium sativum) in Human Urine” (Frontiers in Nutrition, 2019).

Assay: Quantification of garlic-derived metabolites in human urine after ingestion of 3 g raw garlic (SIDA, SAFE, HRGC-MS / HRGC-GC-MS)
Type: in vivo
Parameters: metabolite in urine related to creatinine: unit not given here
Details: for metabolite concentration in urine / metabolite concentration in urine, creatinine-normalized / highest detected concentration of the sample series: 3 g raw garlic; for highest detected concentration of the sample series: same bulb
Outline: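 Quantification used stable isotope dilution (²H3-AMS, -AMSO, -AMSO2 standards), SAFE distillation at 50°C of DCM-treated urine, and GC-MS on a DB-FFAP column, with creatinine from the Jaffé reaction at 492 nm. Urine came from 18 volunteers avoiding sulfur-rich foods, sampled before and up to 24 h after eating 3 g raw garlic.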

- metabolite concentration in urine (U VII, 1 h post (1.08 h)): 239.4 µg/kg
- metabolite concentration in urine, creatinine-normalized (U VII, 1 h post (1.08 h)): 148.3 µg/mmol creatinine
- metabolite concentration in urine (U VII, 2 h post (2.00 h)): 158.6 µg/kg
- metabolite concentration in urine, creatinine-normalized (U VII, 2 h post (2.00 h)): 162.5 µg/mmol creatinine
- metabolite concentration in urine (U VII, 4 h post (4.00 h)): 145.1 µg/kg
- metabolite concentration in urine, creatinine-normalized (U VII, 4 h post (4.00 h)): 90.0 µg/mmol creatinine
- metabolite concentration in urine (U VII, 6 h post (6.00 h)): 123.7 µg/kg
- metabolite concentration in urine, creatinine-normalized (U VII, 6 h post (6.00 h)): 40.0 µg/mmol creatinine
- metabolite concentration in urine (U VII, 8 h post (8.00 h)): 58.6 µg/kg
- metabolite concentration in urine, creatinine-normalized (U VII, 8 h post (8.00 h)): 30.1 µg/mmol creatinine
- metabolite concentration in urine (U VII, 24 h post (24.00 h)): 5.9 µg/kg
- metabolite concentration in urine, creatinine-normalized (U VII, 24 h post (24.00 h)): 1.6 µg/mmol creatinine
- metabolite concentration in urine (U VII, pre (-0.25 h)): 3.4 µg/kg
- metabolite concentration in urine, creatinine-normalized (U VII, pre (-0.25 h)): 1.0 µg/mmol creatinine
- metabolite concentration in urine (U VIII, 0.5 h post (0.52 h)): 184.6 µg/kg
- metabolite concentration in urine, creatinine-normalized (U VIII, 0.5 h post (0.52 h)): 234.8 µg/mmol creatinine
- metabolite concentration in urine (U VIII, 1 h post (1.08 h)): 423.9 µg/kg
- metabolite concentration in urine, creatinine-normalized (U VIII, 1 h post (1.08 h)): 255.5 µg/mmol creatinine
- metabolite concentration in urine (U VIII, 2 h post (2.08 h)): 293.8 µg/kg
- metabolite concentration in urine, creatinine-normalized (U VIII, 2 h post (2.08 h)): 277.9 µg/mmol creatinine
- metabolite concentration in urine (U VIII, 4 h post (4.07 h)): 239.2 µg/kg
- metabolite concentration in urine, creatinine-normalized (U VIII, 4 h post (4.07 h)): 113.3 µg/mmol creatinine
- metabolite concentration in urine (U VIII, 6 h post (6.08 h)): 197.8 µg/kg
- metabolite concentration in urine, creatinine-normalized (U VIII, 6 h post (6.08 h)): 52.6 µg/mmol creatinine
- metabolite concentration in urine (U VIII, 8 h post (7.90 h)): 109.7 µg/kg
- metabolite concentration in urine, creatinine-normalized (U VIII, 8 h post (7.90 h)): 40.0 µg/mmol creatinine
- metabolite concentration in urine (U VIII, 24 h post (23.83 h)): 26.2 µg/kg
- metabolite concentration in urine, creatinine-normalized (U VIII, 24 h post (23.83 h)): 9.9 µg/mmol creatinine
- metabolite concentration in urine (U VIII, pre (-0.33 h)): 61.4 µg/kg
- metabolite concentration in urine, creatinine-normalized (U VIII, pre (-0.33 h)): 13.8 µg/mmol creatinine
- metabolite concentration in urine (U X, 0.5 h post (0.53 h)): 73.7 µg/kg
- metabolite concentration in urine, creatinine-normalized (U X, 0.5 h post (0.53 h)): 38.2 µg/mmol creatinine
- metabolite concentration in urine (U X, 1 h post (1.03 h)): 77.0 µg/kg
- metabolite concentration in urine, creatinine-normalized (U X, 1 h post (1.03 h)): 97.5 µg/mmol creatinine
- metabolite concentration in urine (U X, 2 h post (2.03 h)): 68.8 µg/kg
- metabolite concentration in urine, creatinine-normalized (U X, 2 h post (2.03 h)): 102.4 µg/mmol creatinine
- metabolite concentration in urine (U X, 4 h post (3.85 h)): 68.2 µg/kg
- metabolite concentration in urine, creatinine-normalized (U X, 4 h post (3.85 h)): 51.9 µg/mmol creatinine
- metabolite concentration in urine (U X, 6 h post (5.80 h)): 68.6 µg/kg
- metabolite concentration in urine, creatinine-normalized (U X, 6 h post (5.80 h)): 29.1 µg/mmol creatinine
- metabolite concentration in urine (U X, 8 h post (7.75 h)): 37.9 µg/kg
- metabolite concentration in urine, creatinine-normalized (U X, 8 h post (7.75 h)): 16.3 µg/mmol creatinine
- metabolite concentration in urine (U X, 24 h post (23.97 h)): 23.9 µg/kg
- metabolite concentration in urine, creatinine-normalized (U X, 24 h post (23.97 h)): 2.2 µg/mmol creatinine
- metabolite concentration in urine (U X, pre (-0.07 h)): < LOD^2
- metabolite concentration in urine, creatinine-normalized (U X, pre (-0.07 h)): < LOD^2
- metabolite concentration in urine (U XI, 0.5 h post (0.50 h)): 64.0 µg/kg
- metabolite concentration in urine, creatinine-normalized (U XI, 0.5 h post (0.50 h)): 77.5 µg/mmol creatinine
- metabolite concentration in urine (U XI, 1 h post (1.02 h)): 106.2 µg/kg
- metabolite concentration in urine, creatinine-normalized (U XI, 1 h post (1.02 h)): 133.3 µg/mmol creatinine
- metabolite concentration in urine (U XI, 2 h post (2.00 h)): 102.2 µg/kg
- metabolite concentration in urine, creatinine-normalized (U XI, 2 h post (2.00 h)): 133.3 µg/mmol creatinine
- metabolite concentration in urine (U XI, pre (-0.08 h)): 3.8 µg/kg
- metabolite concentration in urine, creatinine-normalized (U XI, pre (-0.08 h)): 1.1 µg/mmol creatinine
- metabolite concentration in urine (U XII, 0.5 h post (0.48 h)): 83.8 µg/kg
- metabolite concentration in urine, creatinine-normalized (U XII, 0.5 h post (0.48 h)): 11.2 µg/mmol creatinine
- metabolite concentration in urine (U XII, 1 h post (1.03 h)): 82.1 µg/kg
- metabolite concentration in urine, creatinine-normalized (U XII, 1 h post (1.03 h)): 83.2 µg/mmol creatinine
- metabolite concentration in urine (U XII, 2 h post (1.85 h)): 72.2 µg/kg
- metabolite concentration in urine, creatinine-normalized (U XII, 2 h post (1.85 h)): 108.2 µg/mmol creatinine
- metabolite concentration in urine (U XII, 4 h post (3.80 h)): 84.6 µg/kg
- metabolite concentration in urine, creatinine-normalized (U XII, 4 h post (3.80 h)): 31.9 µg/mmol creatinine
- metabolite concentration in urine (U XII, 6 h post (5.82 h)): 61.6 µg/kg
- metabolite concentration in urine, creatinine-normalized (U XII, 6 h post (5.82 h)): 10.8 µg/mmol creatinine
- metabolite concentration in urine (U XII, 8 h post (7.82 h)): 28.7 µg/kg
- metabolite concentration in urine, creatinine-normalized (U XII, 8 h post (7.82 h)): 10.1 µg/mmol creatinine
- metabolite concentration in urine (U XII, 24 h post (23.92 h)): 11.3 µg/kg
- metabolite concentration in urine, creatinine-normalized (U XII, 24 h post (23.92 h)): 0.8 µg/mmol creatinine
- metabolite concentration in urine (U XII, pre (-0.08 h)): 3.9 µg/kg
- metabolite concentration in urine, creatinine-normalized (U XII, pre (-0.08 h)): 0.2 µg/mmol creatinine
- metabolite concentration in urine (U XIII, 0.5 h post (0.42 h)): 38.0 µg/kg
- metabolite concentration in urine, creatinine-normalized (U XIII, 0.5 h post (0.42 h)): 23.8 µg/mmol creatinine
- metabolite concentration in urine (U XIII, 1 h post (0.92 h)): 216.6 µg/kg
- metabolite concentration in urine, creatinine-normalized (U XIII, 1 h post (0.92 h)): 87.7 µg/mmol creatinine
- metabolite concentration in urine (U XIII, 2 h post (1.92 h)): 197.5 µg/kg
- metabolite concentration in urine, creatinine-normalized (U XIII, 2 h post (1.92 h)): 57.1 µg/mmol creatinine
- metabolite concentration in urine (U XIII, 4 h post (3.92 h)): 105.6 µg/kg
- metabolite concentration in urine, creatinine-normalized (U XIII, 4 h post (3.92 h)): 22.5 µg/mmol creatinine
- metabolite concentration in urine (U XIII, 6 h post (5.92 h)): 42.9 µg/kg
- metabolite concentration in urine, creatinine-normalized (U XIII, 6 h post (5.92 h)): 3.7 µg/mmol creatinine
- metabolite concentration in urine (U XIII, 8 h post (7.92 h)): 2.6 µg/kg
- metabolite concentration in urine, creatinine-normalized (U XIII, 8 h post (7.92 h)): 0.3 µg/mmol creatinine
- metabolite concentration in urine (U XIII, 24 h post (23.92 h)): 2.6 µg/kg
- metabolite concentration in urine, creatinine-normalized (U XIII, 24 h post (23.92 h)): 0.3 µg/mmol creatinine
- metabolite concentration in urine (U XIII, pre (-0.08 h)): < LOD^2
- metabolite concentration in urine, creatinine-normalized (U XIII, pre (-0.08 h)): < LOD^2
- variation factor of the concentration maxima between test persons (Urine XIII-XVI, highest vs lowest maximum): up to 3.0
- highest detected concentration of the sample series (Urine XIII): 87.7 μg/mmol creatinine
- highest detected concentration of the sample series (Urine XIV (AMS: printed Urine UIV)): 84.7 μg/mmol creatinine
- highest detected concentration of the sample series (Urine XV): 150.4 μg/mmol creatinine
- highest detected concentration of the sample series (Urine XVI): 50.1 μg/mmol creatinine
- metabolite in urine related to creatinine (urine set U XIX, 0.5 h post (0.50 h), garlic 3.1133 g): 15.1
- metabolite in urine related to creatinine (urine set U XIX, 1 h post (1.00 h), garlic 3.1133 g): 68.8
- metabolite in urine related to creatinine (urine set U XIX, 2 h post (2.00 h), garlic 3.1133 g): 70.6
- metabolite in urine related to creatinine (urine set U XIX, 4 h post (4.00 h), garlic 3.1133 g): 27.0
- metabolite in urine related to creatinine (urine set U XIX, 6 h post (6.20 h), garlic 3.1133 g): 9.8
- metabolite in urine related to creatinine (urine set U XIX, 8 h post (7.93 h), garlic 3.1133 g): 5.9
- metabolite in urine related to creatinine (urine set U XIX, 24 h post (23.98 h), garlic 3.1133 g): 0.2
- metabolite in urine related to creatinine (urine set U XIX, pre (-0.07 h), garlic 3.1133 g): < LOD^2
- metabolite in urine related to creatinine (urine set U XVII, 0.5 h post (0.58 h), garlic 3.1559 g): 0.8
- metabolite in urine related to creatinine (urine set U XVII, 1 h post (1.00 h), garlic 3.1559 g): 10.7
- metabolite in urine related to creatinine (urine set U XVII, 2 h post (2.17 h), garlic 3.1559 g): 27.6
- metabolite in urine related to creatinine (urine set U XVII, 4 h post (4.00 h), garlic 3.1559 g): 15.5
- metabolite in urine related to creatinine (urine set U XVII, 6 h post (6.08 h), garlic 3.1559 g): 1.2
- metabolite in urine related to creatinine (urine set U XVII, 8 h post (8.00 h), garlic 3.1559 g): 1.8
- metabolite in urine related to creatinine (urine set U XVII, 24 h post (23.92 h), garlic 3.1559 g): 0.2
- metabolite in urine related to creatinine (urine set U XVII, pre (-0.08 h), garlic 3.1559 g): 0.3
- metabolite in urine related to creatinine (urine set U XVIII, 0.5 h post (0.63 h), garlic 3.1981 g): 44.1
- metabolite in urine related to creatinine (urine set U XVIII, 1 h post (1.05 h), garlic 3.1981 g): 84.8
- metabolite in urine related to creatinine (urine set U XVIII, 2 h post (2.00 h), garlic 3.1981 g): 94.9
- metabolite in urine related to creatinine (urine set U XVIII, 4 h post (3.97 h), garlic 3.1981 g): 50.9
- metabolite in urine related to creatinine (urine set U XVIII, 6 h post (5.97 h), garlic 3.1981 g): 16.6
- metabolite in urine related to creatinine (urine set U XVIII, 8 h post (8.30 h), garlic 3.1981 g): 17.1
- metabolite in urine related to creatinine (urine set U XVIII, 24 h post (24.13 h), garlic 3.1981 g): 0.5
- metabolite in urine related to creatinine (urine set U XVIII, pre (-0.08 h), garlic 3.1981 g): < LOD^2
SMILES: C=CC[S+](C)[O-] (stereo not shown) [AMSO, allyl methyl sulfoxide]
